Assay results: patent publication US5510340A, “Antihypercholesterolemic compounds and related pharmaceutical compositions and methods of use” (SRI International, priority 1992, dated 1996)
pIC50: −log10 of the molar value.

What was measured:
[1] = test system: Cholesterol Biosynthesis in CHO Cells; test: In Vitro Assay for Inhibition of Cholesterol Biosynthesis in CHO Cells; assay type: cell-based, Chinese Hamster; conditions: Cricetulus griseus, 14C-acetate incorporation into cholesterol, 16-18 h incubation with compound
Protocol: Chinese Hamster ovary (CHO) cells were seeded at 1×10^5 cells per 60-mm Petri dish and incubated at 37° C. in F-12 medium supplemented with fetal calf serum (5%). After 24 h, the medium was aspirated and replaced with delipidated calf serum in F-12 medium containing the test compounds. At various concentrations, either ethanol or dimethyl sulfoxide was used to dissolve the test compounds to a final concentration of 0.1% in the cell medium. Controls contained the vehicle alone. After incubation for 16-18 h, ^14 C-acetate (20 μM final concentration) was added and incubation continued for 5.5 h. […] The cells were then scraped off the plates with a rubber policeman into saline (2 mL). An aliquot for protein was taken, and the remainder of the cell suspension was centrifuged at 800×g for 10 min. The supernatant was discarded and the pellet extracted by vortexing 15 s in chloroform:methanol (2 mL of 2:1). […] NaCl (0.4 mL) was added, vortexed, and centrifuged, and the top layer was discarded. A portion of the upper phase mixture of chloroform:methanol:water (0.4 mL of 3:48:47) was added and gently swirled to avoid mixing with the bottom layer. The resultant samples were centrifuged, and the top layer was discarded. The procedure was repeated before methanol was finally added to combine the two layers and the solvent was evaporated. Chloroform (200 μL) was added to the residue and an aliquot (150 μL) taken. To the aliquot was added cholesterol (40 μg in 20 μL), and the samples were concentrated. The lipids were dissolved in chloroform (50 μL) and spotted on silica gel G thin-layer chromatography plates. After development in hexane:ether:acetic acid (80:20:1), the ^14 C-cholesterol spot was located with iodine vapor and scraped into a scintillation vial, and the radioactivity was counted with a scintillation counter.

[2] = test system: Cholesterol Levels in Plasma of Rats; test: Assay for Lowering Cholesterol Levels in Rats with Oral Administration of Test Compound 15; assay type: in vivo, Male Sprague-Dawley rats; conditions: rat plasma, gavage, mean ± S.E.
Protocol: Male Sprague-Dawley rats weighing 120 to 150 g were used. The animals were placed on a cholesterol-free diet immediately upon arrival and housed in a room with a reverse light cycle. One week after they had adapted to the light cycle, the experiment was begun by gavaging the animals three times daily with various amounts of test compound 13 suspended in 1.0 mL of saline. The control group received 1.0 mL of saline alone. On the seventh day of the experiment, sodium 1-^14 C! acetate (20 μCi/rat) was injected intraperitoneally 30 min after the oral administration (gavage) of test compounds and 2 h before the mid-dark point in the diurnal cycle; 4 h after the ^14 C-acetate injection, the animals were killed and blood samples were collected after decapitation. Plasma was obtained by centrifuging blood in an EDTA-treated centrifuge tube at 3000 rpm for 10 min. Cholesterol synthesis was measured by determining the level of ^14 C-labeled nonsaponifiable lipid present in 1.0 mL of plasma; 1.0 mL of plasma was first mixed with 1.0 mL of saline, followed by 5.0 mL of 10% KOH in absolute ethanol. Samples were saponified at 75° C. for 1 h. After cooling, 44,000 dpm, 0.5 nmol of 1,2-^3 H! cholesterol was added to each sample as an internal standard for calculating recovery through the extraction procedure. Samples were extracted once with 5 mL of petroleum ether, and the organic phase was backwashed with 5 mL of saline. The extracts were dried on a nitrogen evaporator, and the residue was reconstituted into 0.5 mL of CHCl3 -MeOH (2:1). The 0.5-mL reconstituted samples were transferred into counting vials containing 2 mL of ethanol, and both ^3 H and ^14 C were counted in 10 mL of scintillation fluid. The ^3 H-cholesterol internal standard recovery value from each sample was used to correct each sample to 100% recovery of ^14 C-cholesterol. The total cholesterol level and HDL in each plasma sample was also measured. The comparison between test groups and the control group was evaluated for both cholesterol levels and ^14 C-acetate incorporation.
(c.) Assay for Lowering Cholesterol Levels in Rats with Oral Administration of Test Compound 15:
The experiment was carried out as described in (b.). However, in this experiment, blood was drawn on days 0, 3 and 7. Total cholesterol levels and HDL were measured on these blood samples.

C[C@H](CCCC(C)(C)O)[C@H]1CC[C@H]2[C@@H]3CC=C4C[C@@H](O)CC[C@]4(C)[C@H]3CC[C@]12C
pIC50 [1]: 6.46

CC(C)CCC[C@@H](C)[C@H]1CC(=O)C2=C3[C@H](O)C[C@H]4C[C@@H](O)CC[C@]4(C)[C@H]3CC[C@@]21C
pIC50 [1]: 5.80

CC(C)CCC[C@@H](C)[C@H]1C[C@H]2C3=C4[C@@H](C[C@H]5C[C@@H](O)CC[C@]5(C)[C@H]4CC[C@@]31C)n1c(=O)c3ccccc3c(=O)n12
pIC50 [1]: 5.68

CCOC(=O)N1[C@@H]2C[C@H]3C[C@@H](O)CC[C@]3(C)[C@H]3CC[C@@]4(C)C(=C23)[C@H](C[C@@H]4[C@H](C)CCCC(C)C)N1C(=O)OCC
pIC50 [1]: 6.10

CCOC(=O)N1[C@@H]2C[C@H]3C[C@@H](OC(=O)c4ccccc4)CC[C@]3(C)[C@H]3CC[C@@]4(C)C(=C23)[C@H](C[C@@H]4[C@H](C)CCCC(C)C)N1C(=O)OCC
pIC50 [1]: 5.89

CC(C)CCC[C@@H](C)[C@H]1C[C@H]2C3=C4[C@@H](C[C@H]5C[C@@H](O)CC[C@]5(C)[C@H]4CC[C@@]31C)N(C)N2C
pIC50 [1]: 5.80

C[C@H](CCCC(C)(C)O)[C@H]1Cc2nnc3c4c2[C@]1(C)CC[C@@H]4[C@@]1(C)CC[C@H](O)C[C@@H]1C3
pIC50 [1]: 5.47

C[C@H](CCCC(C)(C)F)[C@H]1Cc2nnc3c4c2[C@]1(C)CC[C@@H]4[C@@]1(C)CC[C@H](O)C[C@@H]1C3
pIC50 [1]: 6.80

CC(C)[C@@H](C)/C=C/[C@@H](C)[C@H]1Cc2nnc3c4c2[C@]1(C)CC[C@@H]4[C@@]1(C)CC[C@H](O)C[C@@H]1C3
pIC50 [1]: 6.96

CC(C)CCC[C@@H](C)[C@H]1C[C@H](O)C2=C3C(=O)C[C@H]4C[C@@H](O)CC[C@]4(C)[C@H]3CC[C@@]21C
pIC50 [1]: 5.96

CC(C)CCC[C@@H](C)[C@H]1C[C@H](O)C2=C3C(=O)C[C@H]4C[C@@H](OC(=O)c5ccccc5)CC[C@]4(C)[C@H]3CC[C@@]21C
pIC50 [1]: 5.46

CO[C@@H]1C[C@H]([C@H](C)CCCC(C)C)[C@@]2(C)CC[C@H]3C(=C12)CC[C@H]1C[C@@H](O)CC[C@@]13C
pIC50 [1]: 6.05

CC(C)CCC[C@@H](C)[C@H]1CC(=O)C2=C3[C@H](F)C[C@H]4C[C@@H](OC(=O)c5ccccc5)CC[C@]4(C)[C@H]3CC[C@@]21C
pIC50 [1]: 6.70

CC(C)CCC[C@@H](C)[C@H]1Cc2n[n+]([O-])c3c4c2[C@]1(C)CC[C@@H]4[C@@]1(C)CC[C@H](O)C[C@@H]1C3
pIC50 [1]: > 6.60

CC(C)CCC[C@@H](C)[C@H]1Cc2cnc3c4c2[C@]1(C)CC[C@@H]4[C@@]1(C)CC[C@H](O)C[C@@H]1C3 [Compound 15, pyridino 2',3',4',5':7,8,14,15!cholestan-3β-ol]
Cholesterol Levels, HDL ([2]; Day 0, 0.16 mg/rat/day, control 42.2 ± 4.40): 39.6 ± 2.06 Mg/100 mL
Cholesterol Levels, Total ([2]; Day 0, 0.16 mg/rat/day, control 95.8 ± 9.79): 94.8 ± 5.5 Mg/100 mL
Cholesterol Levels, HDL ([2]; Day 0, 0.33 mg/rat/day, control 42.2 ± 4.40): 35.8 ± 1.91 Mg/100 mL
Cholesterol Levels, Total ([2]; Day 0, 0.33 mg/rat/day, control 95.8 ± 9.79): 99.0 ± 3.7 Mg/100 mL
Cholesterol Levels, HDL ([2]; Day 0, 1.0 mg/rat/day, control 42.2 ± 4.40): 37.8 ± 3.01 Mg/100 mL
Cholesterol Levels, Total ([2]; Day 0, 1.0 mg/rat/day, control 95.8 ± 9.79): 88.8 ± 7.78 Mg/100 mL
Cholesterol Levels, HDL ([2]; Day 0, 3.0 mg/rat/day, control 42.2 ± 4.40): 35.2 ± 3.14 Mg/100 mL
Cholesterol Levels, Total ([2]; Day 0, 3.0 mg/rat/day, control 95.8 ± 9.79): 85.6 ± 6.57 Mg/100 mL
Cholesterol Levels, HDL ([2]; Day 3, 0.16 mg/rat/day, control 41.6 ± 2.62): 36.4 ± 1.36 Mg/100 mL
Cholesterol Levels, Total ([2]; Day 3, 0.16 mg/rat/day, control 85.2 ± 2.95): 83.6 ± 3.56 Mg/100 mL
Cholesterol Levels, HDL ([2]; Day 3, 0.33 mg/rat/day, control 41.6 ± 2.62): 35.8 ± 2.40 Mg/100 mL
Cholesterol Levels, Total ([2]; Day 3, 0.33 mg/rat/day, control 85.2 ± 2.95): 75.6 ± 1.94 Mg/100 mL
Cholesterol Levels, HDL ([2]; Day 3, 1.0 mg/rat/day, control 41.6 ± 2.62): 34.4 ± 1.69 Mg/100 mL
Cholesterol Levels, Total ([2]; Day 3, 1.0 mg/rat/day, control 85.2 ± 2.95): 78.8 ± 2.86 Mg/100 mL
Cholesterol Levels, HDL ([2]; Day 3, 3.0 mg/rat/day, control 41.6 ± 2.62): 29.6 ± 0.98 Mg/100 mL
Cholesterol Levels, Total ([2]; Day 3, 3.0 mg/rat/day, control 85.2 ± 2.95): 72.2 ± 2.95 Mg/100 mL
Cholesterol Levels, HDL ([2]; Day 7, 0.16 mg/rat/day, control 49.6 ± 4.01): 39.8 ± 1.02 Mg/100 mL
Cholesterol Levels, Total ([2]; Day 7, 0.16 mg/rat/day, control 84.8 ± 4.40): 69.4 ± 3.66 Mg/100 mL
Cholesterol Levels, HDL ([2]; Day 7, 0.33 mg/rat/day, control 49.6 ± 4.01): 36.0 ± 2.55 Mg/100 mL
Cholesterol Levels, Total ([2]; Day 7, 0.33 mg/rat/day, control 84.8 ± 4.40): 57.6 ± 2.89 Mg/100 mL
Cholesterol Levels, HDL ([2]; Day 7, 1.0 mg/rat/day, control 49.6 ± 4.01): 25.0 ± 1.87 Mg/100 mL
Cholesterol Levels, Total ([2]; Day 7, 1.0 mg/rat/day, control 84.8 ± 4.40): 58.0 ± 4.06 Mg/100 mL
Cholesterol Levels, HDL ([2]; Day 7, 3.0 mg/rat/day, control 49.6 ± 4.01): 15.4 ± 1.40 Mg/100 mL
Cholesterol Levels, Total ([2]; Day 7, 3.0 mg/rat/day, control 84.8 ± 4.40): 46.4 ± 2.23 Mg/100 mL

CC(C)CCC[C@@H](C)[C@H]1CC(=O)C2=C3CC[C@H]4C[C@@H](O)CC[C@]4(C)[C@H]3CC[C@@]21C [drawing 26]
pIC50 [1]: 5.85

CC(C)CCC[C@@H](C)[C@H]1Cc2nnc3c4c2[C@]1(C)CC[C@@H]4[C@@]1(C)CC[C@H](O)C[C@@H]1C3 [drawing 35]
pIC50 [1]: 7.05

CC(C)CCC[C@@H](C)[C@H]1Cc2cnc3c4c2[C@]1(C)CC[C@@H]4[C@@]1(C)CC[C@H](O)C[C@@H]1C3 [drawing 39]
pIC50 [1]: 7.30
